Publication PMC13249053, “Mechanism of auranofin toxicity: Inhibition of tetrahydrobiopterin metabolism” (Toxicology and applied pharmacology, 2025)

System: BH4 formation in HaCaT cells
Assay: BH4 formation from sepiapterin in intact HaCaT cells (HPLC)
Format: cell-based, human
Details: MTX 1 μM, 2 h, then 200 μM sepiapterin 3 h; BH2 accumulates
Protocol: The growth medium was then removed and the cells incubated with growth medium containing 100 μM sepiapterin. […] BH2 and BH4 were then analyzed on a Jasco high-performance liquid chromatography system (Easton, MD) fitted with a Maxsil-10 C18 column (250 × 4 mm; Phenomenex, Torrance, CA). […] Cell viability following drug treatments was greater than 95 %.
Fig. 3. Effects of auranofin on BH2 and BH4 production in intact HaCaT cells treated with sepiapterin. HaCaT cells (~1 × 10^6 cells/well in 6 well culture plates) were incubated with control medium or medium containing increasing concentrations of auranofin for 2 h followed by 100 μM sepiapterin. After an additional 3 h, BH2 and BH4 were extracted from the cells and analyzed by HPLC with fluorescence detection. Left panel: Chromatograms showing BH2 and BH4 content of control cells and cells treated with Auranofin.
Fig. 6. […] Cells were treated with control medium or medium containing MTX (1 μM, 2 h), an inhibitor of DHFR, followed by 200 μM sepiapterin (upper panel) or BH2 (lower panel). After an additional 3 h incubation, cells were rinsed with PBS; BH2 and BH4 were then extracted and analyzed by HPLC as described in the Materials and Methods.

## CN(Cc1cnc2nc(N)nc(N)c2n1)c1ccc(C(=O)N[C@@H](CCC(=O)O)C(=O)O)cc1 [methotrexate]
  effect on formation of BH4 from sepiapterin in HaCaT cells: inhibit the formation of BH4 from sepiapterin
